Data published in ChEMBL document CHEMBL4043168, “The design and SAR of a novel series of 2-aminopyridine based LRRK2 inhibitors” (Bioorg Med Chem Lett, 2017).

How the values were obtained:
[1] = target: Ribosomal protein S6 kinase alpha-5 (Homo sapiens) (UniProt O75582); assay: Inhibition of MSK1 domain1 conserved Lys2 (DIKLENILLDSNGHVVLTDFGLSK) in human PBMC at 1 uM
[2] = target: Serine/threonine-protein kinase SMG1 (Homo sapiens) (UniProt Q96Q15); assay: Inhibition of SMG1 ATP binding site (SYPYLFKGLEDLHLDER) in human PBMC at 1 uM
[3] = target: MAP/microtubule affinity-regulating kinase 3 (Homo sapiens) (UniProt P27448); assay: Inhibition of MARK3 conserved Lys2 (DLKAENLLLDADMNIK) in human PBMC at 1 uM
Sequence of MAP/microtubule affinity-regulating kinase 3 (Homo sapiens) (P27448 whole entry, looked up): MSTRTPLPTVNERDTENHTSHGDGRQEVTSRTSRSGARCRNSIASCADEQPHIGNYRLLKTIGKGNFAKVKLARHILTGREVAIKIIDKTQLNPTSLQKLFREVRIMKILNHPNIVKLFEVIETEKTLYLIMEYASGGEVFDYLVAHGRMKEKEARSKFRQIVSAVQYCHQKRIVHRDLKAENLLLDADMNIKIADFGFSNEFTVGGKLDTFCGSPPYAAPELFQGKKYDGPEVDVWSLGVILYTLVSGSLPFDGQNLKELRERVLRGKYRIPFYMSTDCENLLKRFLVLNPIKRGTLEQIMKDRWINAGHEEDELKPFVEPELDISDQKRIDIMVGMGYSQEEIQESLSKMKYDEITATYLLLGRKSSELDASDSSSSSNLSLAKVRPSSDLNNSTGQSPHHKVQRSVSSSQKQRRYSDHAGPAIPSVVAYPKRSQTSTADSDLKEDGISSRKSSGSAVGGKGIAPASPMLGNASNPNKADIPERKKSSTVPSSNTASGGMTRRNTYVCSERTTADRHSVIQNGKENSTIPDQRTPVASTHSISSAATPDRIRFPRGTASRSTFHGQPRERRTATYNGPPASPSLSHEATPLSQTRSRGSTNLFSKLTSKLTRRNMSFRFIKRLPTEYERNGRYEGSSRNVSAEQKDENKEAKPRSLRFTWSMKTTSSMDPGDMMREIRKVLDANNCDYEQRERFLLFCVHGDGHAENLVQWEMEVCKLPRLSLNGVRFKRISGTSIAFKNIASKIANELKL

[4] = target: T1, Interleukin-1 receptor-associated kinase 4 (Homo sapiens) (UniProt Q9NWZ3); assay: Inhibition of IRAK4 conserved Lys2 (DIKSANILLDEAFTAK) in human PBMC at 1 uM
T1 sequence (whole entry): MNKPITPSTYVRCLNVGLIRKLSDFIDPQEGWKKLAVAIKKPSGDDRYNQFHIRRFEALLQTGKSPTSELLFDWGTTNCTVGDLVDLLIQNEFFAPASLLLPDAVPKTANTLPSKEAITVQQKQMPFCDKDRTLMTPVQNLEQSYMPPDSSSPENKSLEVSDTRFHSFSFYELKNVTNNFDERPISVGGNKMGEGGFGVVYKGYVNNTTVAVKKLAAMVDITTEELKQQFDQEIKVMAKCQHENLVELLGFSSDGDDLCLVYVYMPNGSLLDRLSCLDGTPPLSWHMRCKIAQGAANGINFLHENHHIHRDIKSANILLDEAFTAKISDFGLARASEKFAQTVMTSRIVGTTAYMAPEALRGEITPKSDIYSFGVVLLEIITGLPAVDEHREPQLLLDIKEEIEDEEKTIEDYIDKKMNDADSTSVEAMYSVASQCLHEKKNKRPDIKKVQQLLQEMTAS

[5] = target: Serine/threonine-protein kinase WNK1 (Homo sapiens) (UniProt Q9H4A3); assay: Inhibition of Wnk1 activation Loop (IGDLGLATLKR) in human PBMC at 1 uM
[6] = target: Cyclin-dependent kinase 11B (Homo sapiens) (UniProt P21127); assay: Inhibition of CDK11 labeling at conserved Lys2 (DLKPANILVMGEGPER) in human PBMC at 1 uM
[7] = target: Ribosomal protein S6 kinase delta-1 (Homo sapiens) (UniProt Q96S38); assay: Inhibition of RSKL1 domain1 Protein Kinase Domain (VLGVIDKVLLVMDTR) in human PBMC at 1 uM
Sequence of Ribosomal protein S6 kinase delta-1 (Homo sapiens) (Q96S38 whole entry, the tested form may be a part): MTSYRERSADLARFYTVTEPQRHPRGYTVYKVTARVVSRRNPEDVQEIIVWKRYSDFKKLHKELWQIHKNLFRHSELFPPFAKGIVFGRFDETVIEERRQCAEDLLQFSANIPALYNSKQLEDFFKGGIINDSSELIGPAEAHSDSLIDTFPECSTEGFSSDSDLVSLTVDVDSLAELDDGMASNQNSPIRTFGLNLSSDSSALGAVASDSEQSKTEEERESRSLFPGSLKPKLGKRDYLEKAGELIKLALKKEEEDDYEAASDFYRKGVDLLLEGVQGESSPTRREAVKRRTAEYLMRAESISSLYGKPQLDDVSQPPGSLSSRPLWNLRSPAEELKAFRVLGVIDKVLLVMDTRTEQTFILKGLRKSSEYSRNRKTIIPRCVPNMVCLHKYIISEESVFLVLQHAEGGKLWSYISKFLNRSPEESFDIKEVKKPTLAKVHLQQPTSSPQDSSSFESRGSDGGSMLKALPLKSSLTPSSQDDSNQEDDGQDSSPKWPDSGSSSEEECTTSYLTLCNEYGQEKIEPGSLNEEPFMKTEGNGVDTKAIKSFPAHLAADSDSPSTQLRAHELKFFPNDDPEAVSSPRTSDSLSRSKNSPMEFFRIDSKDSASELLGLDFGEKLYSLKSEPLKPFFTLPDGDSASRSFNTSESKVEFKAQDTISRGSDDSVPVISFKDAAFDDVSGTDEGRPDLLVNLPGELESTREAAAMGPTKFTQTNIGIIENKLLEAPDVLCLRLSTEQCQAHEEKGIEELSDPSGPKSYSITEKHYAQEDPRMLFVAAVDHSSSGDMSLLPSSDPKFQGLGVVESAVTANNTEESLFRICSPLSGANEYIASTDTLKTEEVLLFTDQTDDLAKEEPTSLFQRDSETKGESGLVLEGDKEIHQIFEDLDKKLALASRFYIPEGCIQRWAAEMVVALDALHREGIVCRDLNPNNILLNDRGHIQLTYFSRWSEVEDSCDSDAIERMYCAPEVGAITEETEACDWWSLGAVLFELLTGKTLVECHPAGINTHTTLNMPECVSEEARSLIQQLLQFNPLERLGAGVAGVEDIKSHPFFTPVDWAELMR

[8] = target: Serine/threonine-protein kinase WNK3 (Homo sapiens) (UniProt Q9BYP7); assay: Inhibition of Wnk3 conserved Lys2 (DLKCDNIFITGPTGSVK) in human PBMC at 1 uM
Sequence of Serine/threonine-protein kinase WNK3 (Homo sapiens) (Q9BYP7 whole entry, the tested form may be a part): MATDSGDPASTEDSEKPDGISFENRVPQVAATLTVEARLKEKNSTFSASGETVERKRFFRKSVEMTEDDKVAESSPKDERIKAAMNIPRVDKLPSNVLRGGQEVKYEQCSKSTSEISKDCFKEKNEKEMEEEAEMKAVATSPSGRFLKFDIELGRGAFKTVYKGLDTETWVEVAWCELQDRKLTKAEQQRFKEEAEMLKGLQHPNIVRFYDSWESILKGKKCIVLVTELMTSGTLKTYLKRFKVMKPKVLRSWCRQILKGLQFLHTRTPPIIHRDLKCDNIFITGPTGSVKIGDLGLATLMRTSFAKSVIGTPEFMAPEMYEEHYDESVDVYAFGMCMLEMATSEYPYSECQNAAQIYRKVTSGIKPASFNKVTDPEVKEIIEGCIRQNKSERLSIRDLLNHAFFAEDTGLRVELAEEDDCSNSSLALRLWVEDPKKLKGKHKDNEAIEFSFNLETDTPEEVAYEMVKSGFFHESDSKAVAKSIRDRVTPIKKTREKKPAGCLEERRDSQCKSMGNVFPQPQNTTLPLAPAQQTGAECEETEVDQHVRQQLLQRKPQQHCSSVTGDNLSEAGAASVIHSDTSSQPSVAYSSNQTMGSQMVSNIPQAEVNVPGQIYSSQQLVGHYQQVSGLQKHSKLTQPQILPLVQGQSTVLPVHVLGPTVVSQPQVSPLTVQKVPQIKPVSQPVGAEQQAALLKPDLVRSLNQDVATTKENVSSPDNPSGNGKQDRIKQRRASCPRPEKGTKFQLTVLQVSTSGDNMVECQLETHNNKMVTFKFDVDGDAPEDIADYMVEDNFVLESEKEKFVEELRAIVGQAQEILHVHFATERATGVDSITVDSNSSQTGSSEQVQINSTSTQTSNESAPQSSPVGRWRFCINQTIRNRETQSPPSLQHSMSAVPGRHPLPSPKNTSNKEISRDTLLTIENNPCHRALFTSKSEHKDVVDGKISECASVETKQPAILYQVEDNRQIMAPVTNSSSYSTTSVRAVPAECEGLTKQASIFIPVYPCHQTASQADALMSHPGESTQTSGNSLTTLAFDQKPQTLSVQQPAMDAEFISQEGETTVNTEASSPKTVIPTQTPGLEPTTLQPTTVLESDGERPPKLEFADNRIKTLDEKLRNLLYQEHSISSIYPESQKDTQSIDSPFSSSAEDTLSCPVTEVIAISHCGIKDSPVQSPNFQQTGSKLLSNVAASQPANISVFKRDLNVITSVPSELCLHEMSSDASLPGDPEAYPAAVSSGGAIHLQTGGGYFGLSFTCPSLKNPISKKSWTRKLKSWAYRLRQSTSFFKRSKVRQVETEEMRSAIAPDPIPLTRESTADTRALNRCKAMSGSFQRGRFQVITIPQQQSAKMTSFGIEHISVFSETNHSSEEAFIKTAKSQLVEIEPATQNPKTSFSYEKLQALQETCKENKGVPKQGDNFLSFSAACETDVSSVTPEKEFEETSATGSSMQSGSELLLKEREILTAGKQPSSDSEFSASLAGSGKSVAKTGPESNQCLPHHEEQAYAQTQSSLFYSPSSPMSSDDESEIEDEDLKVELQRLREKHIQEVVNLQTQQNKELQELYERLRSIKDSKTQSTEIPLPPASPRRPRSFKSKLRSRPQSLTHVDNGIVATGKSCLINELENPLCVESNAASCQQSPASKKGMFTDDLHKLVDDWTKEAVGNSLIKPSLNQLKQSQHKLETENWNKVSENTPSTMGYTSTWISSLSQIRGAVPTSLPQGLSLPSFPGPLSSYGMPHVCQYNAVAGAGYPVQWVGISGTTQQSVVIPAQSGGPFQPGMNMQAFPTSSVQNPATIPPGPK

[9] = target: T2, Tyrosine-protein kinase JAK3 (Homo sapiens) (UniProt P52333); assay: Inhibition of JAK3 domain2 conserved Lys1 (YDPLGDNTGALVAVKQLQHSGPDQQR) in human PBMC at 1 uM
T2 sequence (whole entry): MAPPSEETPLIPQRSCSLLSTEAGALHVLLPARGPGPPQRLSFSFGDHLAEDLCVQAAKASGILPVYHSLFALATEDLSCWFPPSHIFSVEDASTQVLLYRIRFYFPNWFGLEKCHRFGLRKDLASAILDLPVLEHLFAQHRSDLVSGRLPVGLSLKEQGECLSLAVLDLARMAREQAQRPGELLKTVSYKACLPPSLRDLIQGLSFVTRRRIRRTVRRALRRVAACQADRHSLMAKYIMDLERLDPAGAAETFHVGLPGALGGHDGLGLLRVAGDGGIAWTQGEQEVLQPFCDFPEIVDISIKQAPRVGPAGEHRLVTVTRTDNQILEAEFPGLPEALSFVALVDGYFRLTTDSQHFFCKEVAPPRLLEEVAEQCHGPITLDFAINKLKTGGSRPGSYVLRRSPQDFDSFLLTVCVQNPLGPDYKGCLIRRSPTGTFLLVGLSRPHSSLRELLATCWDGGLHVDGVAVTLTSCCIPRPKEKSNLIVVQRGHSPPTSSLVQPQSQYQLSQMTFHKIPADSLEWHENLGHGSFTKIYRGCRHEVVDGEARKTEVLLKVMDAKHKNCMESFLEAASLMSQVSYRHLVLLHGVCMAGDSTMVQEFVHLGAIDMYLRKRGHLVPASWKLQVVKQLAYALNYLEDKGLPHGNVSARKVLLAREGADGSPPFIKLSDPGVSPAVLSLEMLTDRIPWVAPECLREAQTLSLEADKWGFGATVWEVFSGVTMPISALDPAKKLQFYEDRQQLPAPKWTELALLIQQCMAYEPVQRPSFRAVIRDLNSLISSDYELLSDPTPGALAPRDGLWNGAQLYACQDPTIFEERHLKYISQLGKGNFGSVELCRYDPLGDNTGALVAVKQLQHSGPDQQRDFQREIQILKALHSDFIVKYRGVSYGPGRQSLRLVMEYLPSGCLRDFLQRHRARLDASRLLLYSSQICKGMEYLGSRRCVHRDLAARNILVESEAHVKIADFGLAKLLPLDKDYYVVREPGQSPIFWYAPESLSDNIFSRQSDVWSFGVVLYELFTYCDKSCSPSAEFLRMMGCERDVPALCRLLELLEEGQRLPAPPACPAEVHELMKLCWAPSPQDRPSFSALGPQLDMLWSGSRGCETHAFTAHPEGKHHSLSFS

[10] = target: Cyclin-dependent kinase 17 (Homo sapiens) (UniProt Q00537); assay: Inhibition of PCTAIRE2 conserved Lys2 (DLKPQNLLINEK) in human PBMC at 1 uM
Sequence of Cyclin-dependent kinase 17 (Homo sapiens) (Q00537 whole entry, looked up): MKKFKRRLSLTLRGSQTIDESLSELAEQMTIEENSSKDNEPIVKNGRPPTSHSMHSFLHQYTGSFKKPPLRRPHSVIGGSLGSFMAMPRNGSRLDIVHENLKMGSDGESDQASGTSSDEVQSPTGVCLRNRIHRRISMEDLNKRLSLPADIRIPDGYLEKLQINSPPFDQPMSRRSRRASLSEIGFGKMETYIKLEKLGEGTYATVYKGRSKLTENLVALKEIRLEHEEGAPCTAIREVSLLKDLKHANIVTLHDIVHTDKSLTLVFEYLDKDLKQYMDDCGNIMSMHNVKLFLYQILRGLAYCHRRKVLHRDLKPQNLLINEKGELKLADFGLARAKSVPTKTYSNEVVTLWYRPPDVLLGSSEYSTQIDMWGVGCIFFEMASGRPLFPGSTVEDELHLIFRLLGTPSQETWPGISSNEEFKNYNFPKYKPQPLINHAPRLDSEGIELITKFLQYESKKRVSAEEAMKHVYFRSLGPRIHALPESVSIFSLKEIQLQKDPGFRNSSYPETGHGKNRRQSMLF

Sequence of Ribosomal protein S6 kinase alpha-5 (Homo sapiens) (O75582 whole entry, looked up, the tested form may be a part): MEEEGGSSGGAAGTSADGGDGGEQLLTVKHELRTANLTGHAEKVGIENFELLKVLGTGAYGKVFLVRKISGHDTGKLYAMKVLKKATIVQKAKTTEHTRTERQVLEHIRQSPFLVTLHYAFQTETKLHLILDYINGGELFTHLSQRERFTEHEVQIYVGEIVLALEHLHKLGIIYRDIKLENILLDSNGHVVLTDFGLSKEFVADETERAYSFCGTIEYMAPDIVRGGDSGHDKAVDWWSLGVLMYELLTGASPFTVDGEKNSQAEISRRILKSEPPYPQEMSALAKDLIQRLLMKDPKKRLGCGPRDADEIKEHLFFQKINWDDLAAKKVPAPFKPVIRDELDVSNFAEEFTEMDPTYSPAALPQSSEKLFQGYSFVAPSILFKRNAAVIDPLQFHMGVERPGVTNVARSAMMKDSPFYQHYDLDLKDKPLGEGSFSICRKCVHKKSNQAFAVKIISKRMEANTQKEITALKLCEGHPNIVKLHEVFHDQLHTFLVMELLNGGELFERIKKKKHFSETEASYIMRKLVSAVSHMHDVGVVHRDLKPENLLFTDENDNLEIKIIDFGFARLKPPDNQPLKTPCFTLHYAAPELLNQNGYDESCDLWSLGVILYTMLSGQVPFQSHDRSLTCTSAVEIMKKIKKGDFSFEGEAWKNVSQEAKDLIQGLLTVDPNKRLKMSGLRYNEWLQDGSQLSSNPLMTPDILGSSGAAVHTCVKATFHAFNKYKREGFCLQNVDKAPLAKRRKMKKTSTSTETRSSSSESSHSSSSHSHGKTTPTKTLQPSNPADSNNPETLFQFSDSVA

Compound `CC(C)n1cc(-c2cc(-c3ccc(CN4CCOCC4)cc3)cnc2N)nn1` has an inhibition [1] of 9.8%, an inhibition [2] of 6.6% and an inhibition [3] of 28.8%. For the same compound, the inhibition [4] was -2.5%, the inhibition [5] was 21.9% and the inhibition [6] was 1.5%. For the same compound, the inhibition [7] was 4.7%, the inhibition [8] was 2.2% and the inhibition [9] was -0.9%. The inhibition [10] was 7.7%.
